Values of other authors as cited in PubChem BioAssay AID1259409 (Chemical Carcinogenesis Research Information System (CCRIS), 2018).

System: rodent chemically induced tumor inhibition, incidence and multiplicity
Experiment: CCRIS tumor inhibitor studies

COc1ccc2cc3[n+](cc2c1OC)CCc1cc2c(cc1-3)OCO2
tumour outcome (control, treated, inhibition, significance) (Carcinogen: METHYLCHOLANTHRENE, 56-49-5, Dose [Inhibitor]: 0, 0.5 MG/KG BW BY GAVAGE 3/WK FOR 8 WK (STUDY DURATION: 180 D), Route [Inhibitor]: ORAL, Species: MOUSE, Strain/Sex: SWISS/MALE, Target Tissue: Type of Lesion: SKIN: SARCOMA, Dose [Carcinogen]: 200 UG/ANIMAL ONCE 5 D POST INHIBITOR TREATMENT): 100%, 40%, 60%, not calculated
tumour outcome (control, treated, inhibition, significance) (Carcinogen: METHYLCHOLANTHRENE, 56-49-5, Dose [Inhibitor]: 0, 2.5 MG/KG BW BY GAVAGE 3/WK FOR 8 WK (STUDY DURATION: 180 D), Route [Inhibitor]: ORAL, Species: MOUSE, Strain/Sex: SWISS/MALE, Target Tissue: Type of Lesion: SKIN: SARCOMA, Dose [Carcinogen]: 200 UG/ANIMAL ONCE 5 D POST INHIBITOR TREATMENT): 100%, 47%, 53%, not calculated
tumour outcome (control, treated, inhibition, significance) (Carcinogen: METHYLCHOLANTHRENE, 56-49-5, Dose [Inhibitor]: 0, 5 MG/KG BW BY GAVAGE 3/WK FOR 8 WK (STUDY DURATION: 180 D), Route [Inhibitor]: ORAL, Species: MOUSE, Strain/Sex: SWISS/MALE, Target Tissue: Type of Lesion: SKIN: SARCOMA, Dose [Carcinogen]: 200 UG/ANIMAL ONCE 5 D POST INHIBITOR TREATMENT): 100%, 67%, 33%, not calculated
tumour outcome (control, treated, inhibition, significance) (Carcinogen: N,N-DIETHYLNITROSAMINE, 55-18-5, Dose [Inhibitor]: 0, 10 MG/KG BW BY GAVAGE 5 D/WK FOR 141 D (STUDY DURATION: 30 WK), Route [Inhibitor]: ORAL, Species: RAT, Strain/Sex: WISTAR/FEMALE, Target Tissue: Type of Lesion: LIVER: TUMOR, Dose [Carcinogen]: 0.02% IN DISTILLED WATER BY GAVAGE 5 D/WK FOR 20 WK BEGINNING 1 D POST INHIBITOR FIRST DOSE): 100%, 100%, 0%, not significant
tumour outcome (control, treated, inhibition, significance) (Carcinogen: N,N-DIETHYLNITROSAMINE, 55-18-5, Dose [Inhibitor]: 0, 25 MG/KG BW BY GAVAGE 5 D/WK FOR 141 D (STUDY DURATION: 30 WK), Route [Inhibitor]: ORAL, Species: RAT, Strain/Sex: WISTAR/FEMALE, Target Tissue: Type of Lesion: LIVER: TUMOR, Dose [Carcinogen]: 0.02% IN DISTILLED WATER BY GAVAGE 5 D/WK FOR 20 WK BEGINNING 1 D POST INHIBITOR FIRST DOSE): 100%, 50%, 50%, not significant
tumour outcome (control, treated, inhibition, significance) (Carcinogen: N,N-DIETHYLNITROSAMINE, 55-18-5, Dose [Inhibitor]: 0, 50 MG/KG BW BY GAVAGE 5 D/WK FOR 141 D (STUDY DURATION: 30 WK), Route [Inhibitor]: ORAL, Species: RAT, Strain/Sex: WISTAR/FEMALE, Target Tissue: Type of Lesion: LIVER: TUMOR, Dose [Carcinogen]: 0.02% IN DISTILLED WATER BY GAVAGE 5 D/WK FOR 20 WK BEGINNING 1 D POST INHIBITOR FIRST DOSE): 100%, 50%, 50%, not significant

O=C(O)c1cc(=O)[nH]c(=O)[nH]1
tumour outcome (control, treated, inhibition, significance) (Carcinogen: URETHANE, 51-79-6, Dose [Inhibitor]: 0.1 MG/GM BW AS A 1% SUSPENSION IN DISTILLED WATER ONCE 14 WK OF AGE SIMULTANEOUS WITH CARCINOGEN TREATMENT (STUDY DURAT, Route [Inhibitor]: INTRAPERITONEAL, Species: MOUSE, Strain/Sex: SWR/MALE, Target Tissue: Type of Lesion: LUNG: ADENOMA, Dose [Carcinogen]: 1 MG/G BW IN DISTILLED WATER ONCE, Promoter: NONE USED): 100%, 100%, 0%, not significant
tumour outcome (control, treated, inhibition, significance) (Carcinogen: URETHANE, 51-79-6, Dose [Inhibitor]: 0.1 MG/GM BW AS A 1% SUSPENSION IN DISTILLED WATER TWICE AT 13 WK OF AGE GIVEN 24 HR APART STARTING 24 HR PRIOR TO CARCI, Route [Inhibitor]: INTRAPERITONEAL, Species: MOUSE, Strain/Sex: SWR/MALE, Target Tissue: Type of Lesion: LUNG: ADENOMA, Dose [Carcinogen]: 0.5 MG/GM BW IN DISTILLED WATER ONCE AT SAME TIME AS LAST AGENT TREATMENT, Promoter: NONE USED): 83%, 100%, -20%, not significant
tumour outcome (control, treated, inhibition, significance) (Carcinogen: URETHANE, 51-79-6, Dose [Inhibitor]: 0.1 MG/GM BW AS A 1% SUSPENSION IN DISTILLED WATER TWICE AT 22 WK OF AGE GIVEN 24 HR APART STARTING 24 HR PRIOR TO CARCI, Route [Inhibitor]: INTRAPERITONEAL, Species: MOUSE, Strain/Sex: SWR/MALE, Target Tissue: Type of Lesion: LUNG: ADENOMA, Dose [Carcinogen]: 0.5 MG/GM BW IN DISTILLED WATER ONCE AT SAME TIME AS LAST AGENT TREATMENT, Promoter: NONE USED): 71%, 71%, 0%, not significant

Oc1cc(O)c2c(c1)O[C@H](c1ccc(O)c(O)c1)[C@H](O)C2
tumour outcome (control, treated, inhibition, significance) (Carcinogen: 3-METHYLCHOLANTHRENE, 56-49-5, Dose [Inhibitor]: 0, 2 MG IN 0.1 ML STERILE SALINE 1/D FOR 5 CONSECUTIVE D BEGINNING 30 D POST CARCINOGEN TREATMENT (STUDY DURATION: 20 WK, Route [Inhibitor]: GAVAGE, Species: MOUSE, Strain/Sex: SWISS/MALE, Target Tissue: Type of Lesion: INJECTION SITE: SARCOMA, Dose [Carcinogen]: 745 NMOL IN 0.1 ML DMSO 1/D FOR 2 CONSECUTIVE D, Promoter: NONE USED): 100%, 33%, 67%, p<0.01
tumour outcome (control, treated, inhibition, significance) (Carcinogen: 7,12-DIMETHYLBENZ[A]ANTHRACENE, 57-97-6, Dose [Inhibitor]: 0, 2 MG IN 0.1 ML DMSO 2/WK FOR 6 WK ADMINISTERED 30 MIN POST EACH PROMOTER DOSE (STUDY DURATION: 12 WK), Route [Inhibitor]: DERMAL, Species: MOUSE, Strain/Sex: SWISS/MALE, Target Tissue: Type of Lesion: SKIN: PAPILLOMA, Dose [Carcinogen]: 450 NMOL IN 0.1 ML DMSO ONCE, Promoter: CROTON OIL, 8001-28-3): 17/30 (57%), 14/30 (47%), 18%, not significant

CC(=O)C1CC2CC1CC2N=C=S (configuration not stated)
tumour outcome (control, treated, inhibition, significance) (Carcinogen: 7,12-DIMETHYLBENZ[A]ANTHRACENE, 57-97-6, Dose [Inhibitor]: 0, 100 UMOL/D IN 0.5 ML EMULPHOR EL-620 FOR 5 CONSECUTIVE DAYS BEGINNING AT 47 D OF AGE (STUDY DURATION: 155 D), Route [Inhibitor]: GAVAGE, Species: RAT, Strain/Sex: SPRAGUE-DAWLEY/FEMALE, Target Tissue: Type of Lesion: MAMMARY GLAND: TUMOR, Dose [Carcinogen]: 8 MG IN 1 ML SESAME OIL ONCE AT 50 D OF AGE, Promoter: NONE USED): 17/25 (68%), 8/20 (40%), 41%, not significant
